Experiments:
[1] = system: Magnaporthe grisea (Pyricularia oryzae); test: whole plant or invertebrate; format: in vivo, Magnaporthe grisea on rice leaf segments cv. Ballila; details: foliar, read-out: control of Magnaporthe grisea
Fusarium culmorum = test: whole plant or invertebrate; format: in vivo, Fusarium culmorum on wheat spikelets cv. Monsun; details: in Triticum aestivum, read-out: control of Fusarium culmorum

Molecule Cc1nc2c(Cl)cccc2cc1NC(=O)C(C)(Cc1ccccc1)CC(C)C (centres unmarked) [Compound E-13, 2-benzyl-N-(8-chloro-2-methyl-3-quinolyl)-2,4-dimethyl-pentanamide] has a melting point of 99 to 100 °C and a pest or weed control at 200 ppm [1] of at least 80%.

Molecule CC(Cc1ccccc1)(CC(F)(F)F)C(=O)Nc1cnc2c(Cl)cccc2c1 (centres unmarked) [Compound E-51, 2-benzyl-N-(8-chloro-3-quinolyl)-4,4,4-trifluoro-2-methyl-butanamide] has a melting point of 104 to 106 °C and a pest or weed control at 200 ppm (Fusarium culmorum) of at least 80%.

CCCCC(C)(Cc1ccccc1)C(=O)Nc1cnc2c(F)cccc2c1 (centres unmarked) [Compound E-27, 2-benzyl-N-(8-fluoro-3-quinolyl)-2-methyl-hexanamide] showed a melting point of 135 to 137 °C and a pest or weed control at 200 ppm [1] of at least 80%.

C=C(C)C[C@@](C)(Cc1ccccc1)C(=O)Nc1cc2cccc(F)c2nc1C [Compound F-1, (2S)-2-benzyl-N-(8-fluoro-2-methyl-3-quinolyl)-2,4-dimethyl-pent-4-enamide] showed a pest or weed control at 200 ppm (Fusarium culmorum) of at least 80% and a pest or weed control at 200 ppm [1] of at least 80%.

In the case of COC(Cc1ccccc1)(CC(C)C)C(=O)Nc1cnc2c(F)cccc2c1 (centres unmarked) [Compound E-38, 2-benzyl-N-(8-fluoro-3-quinolyl)-2-methoxy-4-methyl-pentanamide], the melting point was 133 to 135 °C and the pest or weed control at 200 ppm (Fusarium culmorum) was at least 80%.

Cc1nc2c(Cl)cccc2cc1NC(=O)C(C)(Cc1ccccc1)CC(F)(F)F (centres unmarked) [Compound E-17, 2-benzyl-N-(8-chloro-2-methyl-3-quinolyl)-4,4,4-trifluoro-2-methyl-butanamide] showed a melting point of 47 to 50 °C and a pest or weed control at 200 ppm [1] of at least 80%.

For C=C(C)C[C@](C)(Cc1ccccc1)C(=O)Nc1cc2cccc(F)c2nc1C [Compound F-2, (2R)-2-benzyl-N-(8-fluoro-2-methyl-3-quinolyl)-2,4-dimethyl-pent-4-enamide], the pest or weed control at 200 ppm (Fusarium culmorum) was at least 80% and the pest or weed control at 200 ppm [1] was at least 80%.

With CC1(C[C@](C)(Cc2ccccc2)C(=O)Nc2cnc3c(F)cccc3c2)CC1 [Compound F-9, (2R)-2-benzyl-N-(8-fluoro-3-quinolyl)-2-methyl-3-(1-methylcyclopropyl)propanamide] the pest or weed control at 200 ppm (Fusarium culmorum) was at least 80% and the pest or weed control at 200 ppm [1] was at least 80%.

Work on CC#CCC(Cc1ccccc1)C(=O)Nc1cnc2c(F)cccc2c1 (centres unmarked) [Compound E-29, 2-benzyl-N-(8-fluoro-3-quinolyl)hex-4-ynamide] yielded a melting point of 218 to 220 °C and a pest or weed control at 200 ppm [1] of at least 80%.

CC#CCC(C)(Cc1ccccc1)C(=O)Nc1cnc2c(F)cccc2c1 (centres unmarked) [Compound E-30, 2-benzyl-N-(8-fluoro-3-quinolyl)-2-methyl-hex-4-ynamide] showed a melting point of 136 to 138 °C and a pest or weed control at 200 ppm [1] of at least 80%.

With CC(Cc1ccccc1)(CC1CC1)C(=O)Nc1cnc2c(F)cccc2c1 (centres unmarked) [Compound E-76, 2-benzyl-3-cyclopropyl-N-(8-fluoro-3-quinolyl)-2-methyl-propanamide] the melting point was 157 to 159 °C and the pest or weed control at 200 ppm [1] was at least 80%.

O=C(Nc1cnc2c(F)cccc2c1)C(Cc1ccccc1)CC(F)(F)F (centres unmarked) [Compound E-82, 2-benzyl-4,4,4-trifluoro-N-(8-fluoro-3-quinolyl)butanamide] showed a melting point of 161 to 164 °C and a pest or weed control at 200 ppm (Fusarium culmorum) of at least 80%.

For CC(C)=CC(C)(Cc1ccccc1)C(=O)Nc1cnc2c(F)cccc2c1 (centres unmarked) [Compound E-48, 2-benzyl-N-(8-fluoro-3-quinolyl)-2,4-dimethyl-pent-3-enamide], the melting point was 167 to 169 °C and the pest or weed control at 200 ppm (Fusarium culmorum) was at least 80%.

Cc1nc2c(F)cccc2cc1NC(=O)C(C)(Cc1cccc(F)c1)CC(F)(F)F (centres unmarked) [Compound E-8, 4,4,4-trifluoro-N-(8-fluoro-2-methyl-3-quinolyl)-2-[(3-fluorophenyl)methyl]-2-methyl-butanamide] gave a pest or weed control at 200 ppm (Fusarium culmorum) of at least 80% and a pest or weed control at 200 ppm [1] of at least 80%.

CC(Cc1ccc(F)cc1)(CC(F)(F)F)C(=O)Nc1cnc2c(F)cccc2c1 (centres unmarked) [Compound E-18, 4,4,4-trifluoro-2-[(4-fluorophenyl)methyl]-N-(8-fluoro-3-quinolyl)-2-methyl-butanamide] gave a pest or weed control at 200 ppm [1] of at least 80%.

C/C=C\CC(C)(Cc1ccccc1)C(=O)Nc1cnc2c(F)cccc2c1 (centres unmarked) [Compound E-28, (Z)-2-benzyl-N-(8-fluoro-3-quinolyl)-2-methyl-hex-4-enamide] gave a melting point of 128 to 130 °C and a pest or weed control at 200 ppm (Fusarium culmorum) of at least 80%.

With CC(Cc1ccccc1)(CC(F)(F)F)C(=O)Nc1cnc2c(F)c(F)ccc2c1 (centres unmarked) [Compound E-60, 2-benzyl-N-(7,8-difluoro-3-quinolyl)-4,4,4-trifluoro-2-methyl-butanamide] the melting point was 183 to 186 °C and the pest or weed control at 200 ppm (Fusarium culmorum) was at least 80%.

For C=C(Cl)CC(C)(Cc1ccccc1)C(=O)Nc1cnc2c(F)cccc2c1 (centres unmarked) [Compound E-53, 2-benzyl-4-chloro-N-(8-fluoro-3-quinolyl)-2-methyl-pent-4-enamide], the melting point was 148 to 150 °C and the pest or weed control at 200 ppm (Fusarium culmorum) was at least 80%.

With C=C(F)CC(C)(Cc1ccccc1)C(=O)Nc1cnc2c(F)cccc2c1 (centres unmarked) [Compound E-71, 2-benzyl-4-fluoro-N-(8-fluoro-3-quinolyl)-2-methyl-pent-4-enamide] the melting point was 132 to 134 °C and the pest or weed control at 200 ppm (Fusarium culmorum) was at least 80%.

In the case of Cc1nc2c(F)cccc2cc1NC(=O)C(Cc1ccccc1)CC(F)(F)F (centres unmarked) [Compound E-44, 2-benzyl-4,4,4-trifluoro-N-(8-fluoro-2-methyl-3-quinolyl)-butanamide], the pest or weed control at 200 ppm (Fusarium culmorum) was at least 80% and the pest or weed control at 200 ppm [1] was at least 80%.

Work on C=C(C)CC(CC)(Cc1ccccc1)C(=O)Nc1cnc2c(F)cccc2c1 (centres unmarked) [Compound E-46, 2-benzyl-2-ethyl-N-(8-fluoro-3-quinolyl)-4-methyl-pent-4-enamide] yielded a pest or weed control at 200 ppm [1] of at least 80%.

With C=C(C)C[C@](C)(Cc1ccccc1)C(=O)Nc1cnc2c(F)cccc2c1C [Compound F-6, (2R)-2-benzyl-N-(8-fluoro-4-methyl-3-quinolyl)-2,4-dimethyl-pent-4-enamide] the pest or weed control at 200 ppm (Fusarium culmorum) was at least 80% and the pest or weed control at 200 ppm [1] was at least 80%.

In the case of CC(C)(C)C(Cc1ccccc1)C(=O)Nc1cnc2c(F)cccc2c1 (centres unmarked) [Compound E-88, 2-benzyl-N-(8-fluoro-3-quinolyl)-3,3-dimethyl-butanamide], the melting point was 212 to 215 °C and the pest or weed control at 200 ppm (Fusarium culmorum) was at least 80%.

CC(C)CC(C)(Cc1ccccc1)C(=O)Nc1cnc2c(F)cccc2c1 (centres unmarked) [Compound E-87, 2-benzyl-N-(8-fluoro-3-quinolyl)-2,4-dimethyl-pentanamide] showed a melting point of 140 to 142 °C and a pest or weed control at 200 ppm (Fusarium culmorum) of at least 80%.

Cc1c(NC(=O)C(Cc2ccccc2)CC(C)C)cnc2c(F)cccc12 (centres unmarked) [Compound E-19, 2-benzyl-N-(8-fluoro-4-methyl-3-quinolyl)-4-methyl-pentanamide] showed a pest or weed control at 200 ppm (Fusarium culmorum) of at least 80% and a pest or weed control at 200 ppm [1] of at least 80%.

Work on CC(Cc1ccccc1)(CC1(F)CC1)C(=O)Nc1cnc2c(F)cccc2c1 (centres unmarked) [Compound E-25, 2-benzyl-3-(1-fluorocyclopropyl)-N-(8-fluoro-3-quinolyl)-2-methyl-propanamide] yielded a melting point of 162 to 164 °C and a pest or weed control at 200 ppm (Fusarium culmorum) of at least 80%.

Molecule CC(C)CC(C)(Cc1ccccc1)C(=O)Nc1cnc2c(Cl)cccc2c1 (centres unmarked) [Compound E-9, 2-benzyl-N-(8-chloro-3-quinolyl)-2,4-dimethyl-pentanamide] has a melting point of 163 to 165 °C.

CC(Cc1ccccc1)(CC(F)(F)F)C(=O)Nc1cnc2c(F)cccc2c1 (centres unmarked) [Compound E-80, 2-benzyl-4,4,4-trifluoro-N-(8-fluoro-3-quinolyl)-2-methyl-butanamide] showed a pest or weed control at 200 ppm (Fusarium culmorum) of at least 80% and a pest or weed control at 200 ppm [1] of at least 80%.

In the case of C=C(C)CC(C)(Cc1ccccc1)C(=O)Nc1cnc2c(Br)cccc2c1 (centres unmarked) [Compound E-63, 2-benzyl-N-(8-bromo-3-quinolyl)-2,4-dimethyl-pent-4-enamide], the melting point was 165 to 169 °C and the pest or weed control at 200 ppm (Fusarium culmorum) was at least 80%.

In the case of COC(C)(Cc1ccccc1)C(=O)Nc1cnc2c(F)cccc2c1 (centres unmarked) [Compound E-43, N-(8-fluoro-3-quinolyl)-2-methoxy-2-methyl-3-phenyl-propanamide], the melting point was 107 to 109 °C and the pest or weed control at 200 ppm (Fusarium culmorum) was at least 80%.

In the case of Cc1nc2c(F)cccc2cc1NC(=O)[C@](C)(Cc1ccccc1)CC(F)(F)F [Compound F-11, (2R)-2-benzyl-4,4,4-trifluoro-N-(8-fluoro-2-methyl-3-quinolyl)-2-methyl-butanamide], the pest or weed control at 200 ppm (Fusarium culmorum) was at least 80% and the pest or weed control at 200 ppm [1] was at least 80%.

With Cc1cccc2cc(NC(=O)C(C)(Cc3ccccc3)CC(F)(F)F)cnc12 (centres unmarked) [Compound E-59, 2-benzyl-4,4,4-trifluoro-2-methyl-N-(8-methyl-3-quinolyl)-butanamide] the melting point was 123 to 125 °C and the pest or weed control at 200 ppm (Fusarium culmorum) was at least 80%.

O=C(Nc1cnc2c(F)cccc2c1)C(Cc1ccccc1)CC(F)(F)Cl (centres unmarked) [Compound E-58, 2-benzyl-4-chloro-4,4-difluoro-N-(8-fluoro-3-quinolyl)butanamide] gave a melting point of 65 to 70 °C and a pest or weed control at 200 ppm (Fusarium culmorum) of at least 80%.

In the case of CC(F)(F)CC(C)(Cc1ccccc1)C(=O)Nc1cnc2c(F)cccc2c1 (centres unmarked) [Compound E-68, 2-benzyl-4,4-difluoro-N-(8-fluoro-3-quinolyl)-2-methyl-pentanamide], the melting point was 156 to 158 °C and the pest or weed control at 200 ppm (Fusarium culmorum) was at least 80%.

Cc1nc2c(F)cccc2cc1NC(=O)[C@@](C)(Cc1ccccc1)CC(F)(F)F [Compound F-12, (2S)-2-benzyl-4,4,4-trifluoro-N-(8-fluoro-2-methyl-3-quinolyl)-2-methyl-butanamide] gave a pest or weed control at 200 ppm (Fusarium culmorum) of at least 80% and a pest or weed control at 200 ppm [1] of at least 80%.

C=C(C)CC(C)(Cc1ccccc1)C(=O)Nc1cnc2c(F)cccc2c1 (centres unmarked) [Compound E-74, 2-benzyl-N-(8-fluoro-3-quinolyl)-2,4-dimethyl-pent-4-enamide] gave a melting point of 147 to 149 °C and a pest or weed control at 200 ppm (Fusarium culmorum) of at least 80%.

Work on COC(Cc1ccccc1)(CC(C)C)C(=O)Nc1cc2cccc(F)c2nc1C (centres unmarked) [Compound E-37, 2-benzyl-N-(8-fluoro-2-methyl-3-quinolyl)-2-methoxy-4-methyl-pentanamide] yielded a melting point of 92 to 94 °C and a pest or weed control at 200 ppm (Fusarium culmorum) of at least 80%.
